Test system: SARS-CoV-2
Test: Antiviral activity against SARS-CoV-2 infected in Vero E6 cells assessed as inhibition of viral replication preincubated with cells for 1 hr and subsequent viral infection for 2 hrs followed by replacement with fresh medium containing compounds and measured after 24 hrs by qRT-PCR analysis
Assay type: functional, organism-based
Settings: Severe acute respiratory syndrome coronavirus 2, Vero C1008

## O=c1c(O)c(-c2cc(O)c(O)c(O)c2)oc2cc(O)cc(O)c12 [MYRICETIN]
  EC50: 8 µM
